Data taken from the NIST ThermoML archive (doi:10.1021/je700338t).

How the values were obtained:
[1] = refractive index (Na D-line) (dimensionless); xn = mol fraction of the nth substance listed; conditions: 298.15 K, 101 kPa, Liquid
[2] = xn = mol fraction of the nth substance listed; conditions: 298.15 K, 101 kPa, Liquid; for mass density: Vibrating tube method
[3] = 298.15 K, 101.33 kPa, Liquid
[4] = refractive index (Na D-line) (dimensionless); conditions: 298.15 K, 101.33 kPa, Liquid

CCCCn1cc[n+](C)c1.F[P-](F)(F)(F)(F)F [1-butyl-3-methylimidazolium hexafluorophosphate] + CC#N
Conditions | refractive index, [1] | viscosity, [2] [mPa·s]
x1 = 0.0496 | 1.3575 | 0.556
x1 = 0.1016 | 1.3687 | 0.864
x1 = 0.147 | 1.3754 | 1.187
x1 = 0.2022 | 1.3819 | 1.866
x1 = 0.2995 | 1.3902 | 3.792
x1 = 0.3524 | 1.3934 | 5.308
x1 = 0.4036 | 1.3959 | 7.674
x1 = 0.4337 | 1.3974 | 9.153
x1 = 0.4955 | 1.3998 | 14.44
x1 = 0.5892 | 1.4024 | 23.84
x1 = 0.6857 | 1.4048 | 40.69
x1 = 0.8046 | 1.4068 | 81.53
x1 = 0.8055 | 1.4069 | 86.27
x1 = 0.9176 | 1.4084 | 154.06

CCCCn1cc[n+](C)c1.F[P-](F)(F)(F)(F)F [1-butyl-3-methylimidazolium hexafluorophosphate] + C[S+](C)[O-]
Conditions | mass density, [2] [kg/m3] | refractive index, [1] | speed of sound, [2] [m/s] | viscosity, [2] [mPa·s]
x1 = 0.0011 | 1096.21 | – | 1484.8 | –
x1 = 0.0024 | 1097.26 | – | 1484.9 | –
x1 = 0.0187 | 1109.73 | – | 1483.5 | –
x1 = 0.0321 | 1119.44 | – | 1482.4 | –
x1 = 0.05 | – | 1.4676 | – | 2.749
x1 = 0.0552 | 1135.09 | – | 1480.5 | –
x1 = 0.0635 | 1140.41 | – | 1479.9 | –
x1 = 0.0996 | 1161.89 | – | 1477.3 | –
x1 = 0.0997 | – | 1.4606 | – | 3.698
x1 = 0.1477 | – | 1.4546 | – | 4.962
x1 = 0.153 | 1189.47 | – | 1473.7 | –
x1 = 0.1977 | – | 1.4491 | – | 6.489
x1 = 0.2381 | 1225.52 | – | 1469.4 | –
x1 = 0.2995 | – | 1.4396 | – | 11.95
x1 = 0.3372 | 1258.28 | – | 1464.5 | –
x1 = 0.3524 | – | 1.4361 | – | 16
x1 = 0.3997 | – | 1.4331 | – | 21.17
x1 = 0.4328 | – | 1.4309 | – | 24.61
x1 = 0.5018 | – | 1.4278 | – | 36.98
x1 = 0.5586 | 1309.44 | – | 1454.9 | –
x1 = 0.598 | – | 1.4226 | – | 56.31
x1 = 0.7043 | – | 1.4182 | – | 83.73
x1 = 0.7791 | 1342.89 | – | 1448.2 | –
x1 = 0.7812 | – | 1.4158 | – | 117.54
x1 = 0.893 | – | 1.4125 | – | 173.32
x1 = 0.925 | 1359.3 | – | 1444.7 | –

C[S+](C)[O-] [dimethyl sulfoxide]
[3]
Conditions | mass density [kg/m3] | viscosity [mPa·s]
– | 1095.3 | 1.961

Conditions | refractive index | speed of sound [m/s]
[3], Sing-around technique in a fixed-path interferometer | – | 1485
[4], Standard Abbe refractometry | 1.4769 | –

CO [methanol]
[3]
Conditions | mass density [kg/m3] | viscosity [mPa·s]
– | 786.654 | 0.54

Conditions | refractive index | speed of sound [m/s]
[3], Sing-around technique in a fixed-path interferometer | – | 1102.9
[4], Standard Abbe refractometry | 1.3269 | –

CCCCn1cc[n+](C)c1.F[P-](F)(F)(F)(F)F [1-butyl-3-methylimidazolium hexafluorophosphate]
Conditions | mass density [kg/m3] | refractive index | speed of sound [m/s] | viscosity [mPa·s]
[3] | 1366.07 | – | 1443.5 | 212.1
[4] | – | 1.4095 | – | –

CCCCn1cc[n+](C)c1.F[P-](F)(F)(F)(F)F [1-butyl-3-methylimidazolium hexafluorophosphate] + CO
Conditions | refractive index, [1] | viscosity, [2] [mPa·s]
x1 = 0.0503 | 1.348 | 0.913
x1 = 0.0993 | 1.3636 | 1.483
x1 = 0.1517 | 1.371 | 2.331
x1 = 0.1969 | 1.3768 | 3.059
x1 = 0.3024 | 1.3872 | 6.057
x1 = 0.3531 | 1.3892 | 8.072
x1 = 0.4106 | 1.3941 | 11.03
x1 = 0.451 | 1.3961 | 13.52
x1 = 0.502 | 1.3986 | 17.29
x1 = 0.6015 | 1.4015 | 27.41
x1 = 0.7082 | 1.4045 | 45.95
x1 = 0.7989 | 1.4066 | 66.79
x1 = 0.8889 | 1.4078 | 107.94

C1CCOC1 [tetrahydrofuran]
[3]
Conditions | mass density [kg/m3] | viscosity [mPa·s]
– | 882.008 | 0.449

Conditions | refractive index | speed of sound [m/s]
[3], Sing-around technique in a fixed-path interferometer | – | 1278.2
[4], Standard Abbe refractometry | 1.405 | –

CC#N [acetonitrile]
[3]
Conditions | mass density [kg/m3] | viscosity [mPa·s]
– | 776.565 | 0.339

Conditions | refractive index | speed of sound [m/s]
[3], Sing-around technique in a fixed-path interferometer | – | 1278.7
[4], Standard Abbe refractometry | 1.3419 | –

CCCCn1cc[n+](C)c1.F[P-](F)(F)(F)(F)F [1-butyl-3-methylimidazolium hexafluorophosphate] + C1CCOC1
Conditions | mass density, [2] [kg/m3] | refractive index, [1] | speed of sound, [2] [m/s] | viscosity, [2] [mPa·s]
x1 = 0.0199 | 911.565 | – | 1279.2 | –
x1 = 0.0376 | 936.57 | – | 1279.9 | –
x1 = 0.0502 | – | 1.4084 | – | 0.75
x1 = 0.0737 | 979.097 | – | 1287.9 | –
x1 = 0.0967 | – | 1.4117 | – | 1.14
x1 = 0.15 | 1055.63 | – | 1312.6 | –
x1 = 0.1524 | – | 1.4125 | – | 1.732
x1 = 0.1999 | – | 1.4126 | – | 2.476
x1 = 0.2003 | 1095.84 | – | 1329.2 | –
x1 = 0.2486 | 1129.41 | – | 1343.7 | –
x1 = 0.2969 | – | 1.413 | – | 4.937
x1 = 0.3004 | 1159.97 | – | 1357.3 | –
x1 = 0.3484 | – | 1.4128 | – | 6.979
x1 = 0.3491 | 1185.7 | – | 1368.6 | –
x1 = 0.3994 | – | 1.4127 | – | 10.06
x1 = 0.4484 | – | 1.4126 | – | 14.54
x1 = 0.4634 | 1235.91 | – | 1390.5 | –
x1 = 0.5028 | – | 1.4117 | – | 18.5
x1 = 0.5808 | 1276.69 | – | 1406.9 | –
x1 = 0.6047 | – | 1.4115 | – | 33.63
x1 = 0.6941 | 1306.09 | – | 1418.7 | –
x1 = 0.7016 | – | 1.411 | – | 52.84
x1 = 0.7996 | 1329.25 | – | 1427.8 | –
x1 = 0.805 | – | 1.4105 | – | 90.82
x1 = 0.8991 | 1348.14 | – | 1435.7 | –
x1 = 0.9595 | – | 1.4095 | – | 186.86
